Test results taken from article PMC4366150, “Inhibiting EGFR Dimerization Using Triazolyl-Bridged Dimerization Arm Mimics” (PLoS ONE, 2015).
Blank lines part the entries; values can stand above or below the molecule they belong to. Positions of bridges follow the written chain, without caps; N, C: chain ends. Non-standard residues stand in square brackets, D forms with d. Residues, ends and D or L forms follow the SMILES beside them. Triazole bridges read from a SMILES are 1,4-linked. *: point of attachment. 5FAM = O=C1OC2(c3ccc(O)cc3Oc3cc(O)ccc32)c2ccc(C(=O)*)cc21; Aha = [N-]=[N+]=NCC[C@H](N)C(=O)O; Nle = CCCC[C@H](N)C(=O)O; Pra = C#CC[C@H](N)C(=O)O; βAla = NCCC(=O)O

What was measured:
Type in all cases: cell-based
[1] = tested on: EGFR p-Tyr1068; test: EGFR phosphorylation (Tyr1068) in MDA-MB-231 cells, western blot; settings: 30 min pretreatment, 50 ng/mL EGF 5 min
Procedure: (§1) The EDA peptides were first tested to see if they could downregulate EGFR activation. Receptor activation was monitored as a function of EGFR autophosphorylation on Tyr1068 in intact MDA-MB-231 cells (Fig. 5a and b and S3 Fig.). The receptor was stimulated with EGF for 5 min following a 30 min peptide pretreatment.
Fig 5 EDA2 down-regulates activated EGFR and reduces cell viability. (a) Cells were stimulated with 50 ng/mL EGF for 5 min in the presence or absence of EDA peptides, followed by western blotting. An apparent decrease in phosphorylated EGFR was observed when treated with EDA2. Vertical lines indicate non-adjacent samples from the same western blot. […] Data is plotted as the average of at least three experiments, where error bars represent SEM. * p < 0.05, ** p < 0.01 relative to the EGF-stimulated control. […] (c) A panel of cell lines was dosed daily with EDA2 or gefitinib for 5 days, and viability was quantified using the Cell Titer Blue assay. […]
Proteins were separated by 8% SDS-PAGE then transferred onto PVDF membrane. […] Bands were visualized by chemiluminescence and quantified using Licor Image Studio Lite. […] Significance values were calculated using two-way ANOVA with Bonferonni multiple-comparison test. […] Significance values were calculated using one-way ANOVA with Bonferonni multiple-comparison test. […]

[2] = tested on: MDA-MB-231 cells; test: Cell viability, Cell Titer Blue, MDA-MB-231; settings: 6.25 μM, dosed daily for 5 days, average of quadruplicates
Procedure: (§2) Fig 5 EDA2 down-regulates activated EGFR and reduces cell viability. (a) Cells were stimulated with 50 ng/mL EGF for 5 min in the presence or absence of EDA peptides, followed by western blotting. An apparent decrease in phosphorylated EGFR was observed when treated with EDA2. Vertical lines indicate non-adjacent samples from the same western blot. […] Data is plotted as the average of at least three experiments, where error bars represent SEM. * p < 0.05, ** p < 0.01 relative to the EGF-stimulated control. All remaining means are not significant (p > 0.05) relative to the EGF-stimulated control. (c) A panel of cell lines was dosed daily with EDA2 or gefitinib for 5 days, and viability was quantified using the Cell Titer Blue assay. […]
(§3) Since EDA2 appeared to downregulate EGFR phosphorylation, we sought to determine whether this activity could also lead to a decrease in cell viability (Fig. 5c). Three diverse, EGFR-expressing cell lines (MDA-MB-231, PC-3, and BxPC-3) were dosed daily with EDA2 over a 0–50 μM concentration range over a five-day time course, after which cell viability was quantified using the Cell Titer Blue assay. […]
(§4) MDA-MB-231, PC-3, or Bx-PC3 cells were seeded at 7,500 cells/well in a 96 well plate and allowed to adhere in RPMI-1640 containing 1% FBS. […] Fluorescence was quantified using 530 nm excitation and 590 nm emission filters. […]

[3] = tested on: PC-3 cells; test: Cell viability, Cell Titer Blue, PC-3; settings: 6.25 μM, dosed daily for 5 days, average of quadruplicates
Procedure: as §2, §3, §4

[4] = tested on: BxPC-3 cells; test: Cell viability, Cell Titer Blue, BxPC-3; settings: 6.25 μM, dosed daily for 5 days, average of quadruplicates
Procedure: as §2, §3, §4

[5] = biological target: T1, total EGFR (Homo sapiens, UniProt P00533); test: Total EGFR protein levels in MDA-MB-231 cells, western blot; settings: peptide 30 min, 50 ng/mL EGF 5 min, western blot normalized to tubulin, average of two experiments
T1 construct: EGFR autophosphorylation on Tyr1068 in intact MDA-MB-231 cells; endogenous in cells; host or cells: MDA-MB-231 (ATCC)
Procedure: as §1
While EDA2 downregulates receptor phosphorylation, we also wanted to investigate whether EGFR dimerization itself was inhibited. As a strategy to measure the number of detectable EGFR dimers in intact cells, a quantitative Proximity Ligation Assay (PLA) was performed (Fig. 6). Cells were stimulated with EGF in the presence or absence of EDA2 or its scramble control (EDA2-Scr). […] Fluorescence microscopy was used to visualize the DAPI and PLA signals.
Proteins were separated by 8% SDS-PAGE then transferred onto PVDF membrane. […] Bands were visualized by chemiluminescence and quantified using Licor Image Studio Lite. […] Significance values were calculated using two-way ANOVA with Bonferonni multiple-comparison test. […] Significance values were calculated using one-way ANOVA with Bonferonni multiple-comparison test.
Supplementary file pone.0118796.s004.tif: S4 Fig The effect of EDA2 and its controls on total EGFR protein levels in the cell. […] Cells were immediately lysed and total EGFR levels were analyzed by western blotting. […]

SMILES: CCCC[C@H](NC(=O)[C@H](CCC(N)=O)NC(=O)[C@H](Cc1ccc(O)cc1)NC(=O)[C@@H](NC(=O)[C@@H](NC(=O)[C@@H]1CCCN1C(=O)[C@H](CC(N)=O)NC(=O)[C@H](Cc1ccc(O)cc1)NC(=O)[C@H](C)NC(=O)CCNC(=O)c1ccc2c(c1)C(=O)OC21c2ccc(O)cc2Oc2cc(O)ccc21)[C@@H](C)O)[C@@H](C)O)C(=O)N[C@@H](C)C(N)=O [non-modified control, reference compound] ({5FAM-βAla}-AYNPTTYQ[Nle]A-NH2)
effect on EGFR phosphorylation (Tyr1068) (in words) ([1]; 0.05, 0.5 or 5 μM peptide, western blot): no inhibitory effect

effect on EGFR expression (total EGFR) (in words) [5]: no effect
SMILES: CCCC[C@@H]1NC(=O)[C@H](CCC(N)=O)NC(=O)[C@H](Cc2ccc(O)cc2)NC(=O)[C@H]([C@@H](C)O)NC(=O)[C@H]([C@@H](C)O)NC(=O)[C@@H]2CCCN2C(=O)[C@H](CC(N)=O)NC(=O)[C@H](Cc2ccc(O)cc2)NC(=O)[C@@H](NC(=O)c2ccc3c(c2)C(=O)OC32c3ccc(O)cc3Oc3cc(O)ccc32)Cc2cn(nn2)CC[C@@H](C(N)=O)NC1=O [EDA2] (5FAM-[Pra]YNPTTYQ[Nle][Aha]-NH2; triazole 1-10)
reduction of EGFR phosphorylation (Tyr1068) compared to untreated cells ([1]; 5 μM peptide, normalized to tubulin, average of at least three experiments): greater than 60%
reduction of cell viability [2]: 50%
reduction of cell viability [3]: 72%
reduction of cell viability [4]: 34%
